Results as given in BindingDB's records for patent US9018371 (Fm Therapeutics, 2015).

Molecular target: T1, Adenosine receptor A3 (Homo sapiens, UniProt P0DMS8)
T1 sequence (P0DMS8 whole entry): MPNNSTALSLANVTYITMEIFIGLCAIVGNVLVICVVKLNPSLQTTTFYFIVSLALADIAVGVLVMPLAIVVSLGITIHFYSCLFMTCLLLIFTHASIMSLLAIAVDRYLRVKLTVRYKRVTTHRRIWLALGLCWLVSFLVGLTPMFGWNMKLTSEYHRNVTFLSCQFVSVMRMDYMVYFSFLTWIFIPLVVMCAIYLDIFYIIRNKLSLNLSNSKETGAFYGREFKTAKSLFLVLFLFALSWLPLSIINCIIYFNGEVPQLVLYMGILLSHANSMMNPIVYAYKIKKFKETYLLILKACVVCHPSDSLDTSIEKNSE
Assay: Binding Assay
Procedure: Incubation for 1 hr in a 370C incubator was followed by rapid filtration in a vacuum using a cell collector (TOMTEC, U.S.A.). Subsequently, the test tubes were washed three times with 3 ml of the buffer before radioactivity was measured using a -counter.

COc1ccccc1CNc1nc(Cl)nc2c1ncn2[C@@H]1SCC(O)[C@@H]1O (stereo partly specified) [US9018371, 7]
Ki: 19.9 nM
